Measured values published in ChEMBL document CHEMBL1130666, “Benzimidazole derivatives as arginine mimetics in 1,4-benzodiazepine nonpeptide vitronectin receptor (alpha v beta 3) antagonists” (Bioorg Med Chem Lett, 1998).

Experiments:
[1] = target: Integrin alpha-IIb/beta-3 (Homo sapiens, UniProt P05106+P08514); experiment: Affinity for alphaIIb-beta3 receptor; type: protein-complex assay
[2] = target: T1, Integrin alpha-V/beta-3 (Homo sapiens, UniProt P05106+P06756); experiment: Binding affinity evaluated against vitronectin receptor (alphaV-beta3) receptor; type: protein-complex assay
T1 sequence (P05106 27-788 limits assumed): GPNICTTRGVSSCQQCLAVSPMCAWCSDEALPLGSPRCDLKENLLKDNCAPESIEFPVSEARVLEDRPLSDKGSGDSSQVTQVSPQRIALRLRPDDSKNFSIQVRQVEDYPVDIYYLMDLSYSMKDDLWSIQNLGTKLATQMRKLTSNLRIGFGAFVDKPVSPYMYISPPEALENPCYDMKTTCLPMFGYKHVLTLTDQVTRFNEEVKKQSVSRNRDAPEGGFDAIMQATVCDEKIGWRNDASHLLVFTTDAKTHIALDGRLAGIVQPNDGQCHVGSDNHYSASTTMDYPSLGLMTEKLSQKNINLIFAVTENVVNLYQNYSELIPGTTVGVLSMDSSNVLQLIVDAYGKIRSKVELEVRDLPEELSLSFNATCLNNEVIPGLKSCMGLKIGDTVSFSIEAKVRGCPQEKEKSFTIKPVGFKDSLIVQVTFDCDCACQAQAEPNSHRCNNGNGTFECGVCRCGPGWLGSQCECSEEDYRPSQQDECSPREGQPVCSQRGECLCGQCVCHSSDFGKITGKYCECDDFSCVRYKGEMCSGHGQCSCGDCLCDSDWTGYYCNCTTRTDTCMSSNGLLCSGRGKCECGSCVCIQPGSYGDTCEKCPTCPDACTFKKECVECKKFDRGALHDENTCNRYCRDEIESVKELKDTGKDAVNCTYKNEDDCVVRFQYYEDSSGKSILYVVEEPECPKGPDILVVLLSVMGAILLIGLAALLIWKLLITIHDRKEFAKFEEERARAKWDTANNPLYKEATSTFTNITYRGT
T1 sequence (P06756 31-889 limits assumed): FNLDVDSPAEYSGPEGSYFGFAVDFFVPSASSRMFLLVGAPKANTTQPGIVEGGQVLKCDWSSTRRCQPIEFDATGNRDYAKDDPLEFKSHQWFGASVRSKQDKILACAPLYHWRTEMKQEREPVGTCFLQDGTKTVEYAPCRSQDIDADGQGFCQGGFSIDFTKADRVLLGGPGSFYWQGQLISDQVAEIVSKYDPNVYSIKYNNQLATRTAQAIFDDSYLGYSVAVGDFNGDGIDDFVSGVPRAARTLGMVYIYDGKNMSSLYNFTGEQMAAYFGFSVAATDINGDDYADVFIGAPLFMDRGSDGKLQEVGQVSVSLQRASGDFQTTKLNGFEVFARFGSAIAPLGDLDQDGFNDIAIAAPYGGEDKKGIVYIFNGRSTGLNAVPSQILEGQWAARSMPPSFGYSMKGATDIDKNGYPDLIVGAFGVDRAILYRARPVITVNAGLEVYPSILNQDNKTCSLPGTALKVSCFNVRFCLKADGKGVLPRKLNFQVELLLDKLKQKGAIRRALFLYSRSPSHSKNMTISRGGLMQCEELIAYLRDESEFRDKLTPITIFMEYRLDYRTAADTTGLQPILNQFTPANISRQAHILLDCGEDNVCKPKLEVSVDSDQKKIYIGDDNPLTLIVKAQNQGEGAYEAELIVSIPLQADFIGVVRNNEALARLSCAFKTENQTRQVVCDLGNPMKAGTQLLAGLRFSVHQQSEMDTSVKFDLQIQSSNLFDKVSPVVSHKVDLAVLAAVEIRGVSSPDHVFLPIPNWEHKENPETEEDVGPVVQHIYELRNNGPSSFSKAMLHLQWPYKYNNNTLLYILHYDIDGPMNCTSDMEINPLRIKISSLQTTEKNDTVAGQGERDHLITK
T1 sequence (P06756 891-1048 limits assumed): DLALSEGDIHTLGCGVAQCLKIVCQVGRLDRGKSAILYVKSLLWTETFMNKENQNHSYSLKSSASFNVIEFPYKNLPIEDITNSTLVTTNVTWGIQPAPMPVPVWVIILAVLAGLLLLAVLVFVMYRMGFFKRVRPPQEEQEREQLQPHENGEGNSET

[3] = target: T1, Integrin alpha-V/beta-3; experiment: Effect against adhesion of HEK 293 cells transfected with human alpha-v beta-3 to vitronectin coated plates; type: functional, cell-based, HEK293

Sequence of Integrin alpha-IIb/beta-3 (P05106 27-788 limits assumed): as the sequence (P05106 27-788 limits assumed) above
Sequence of Integrin alpha-IIb/beta-3 (P08514 32-887 limits assumed): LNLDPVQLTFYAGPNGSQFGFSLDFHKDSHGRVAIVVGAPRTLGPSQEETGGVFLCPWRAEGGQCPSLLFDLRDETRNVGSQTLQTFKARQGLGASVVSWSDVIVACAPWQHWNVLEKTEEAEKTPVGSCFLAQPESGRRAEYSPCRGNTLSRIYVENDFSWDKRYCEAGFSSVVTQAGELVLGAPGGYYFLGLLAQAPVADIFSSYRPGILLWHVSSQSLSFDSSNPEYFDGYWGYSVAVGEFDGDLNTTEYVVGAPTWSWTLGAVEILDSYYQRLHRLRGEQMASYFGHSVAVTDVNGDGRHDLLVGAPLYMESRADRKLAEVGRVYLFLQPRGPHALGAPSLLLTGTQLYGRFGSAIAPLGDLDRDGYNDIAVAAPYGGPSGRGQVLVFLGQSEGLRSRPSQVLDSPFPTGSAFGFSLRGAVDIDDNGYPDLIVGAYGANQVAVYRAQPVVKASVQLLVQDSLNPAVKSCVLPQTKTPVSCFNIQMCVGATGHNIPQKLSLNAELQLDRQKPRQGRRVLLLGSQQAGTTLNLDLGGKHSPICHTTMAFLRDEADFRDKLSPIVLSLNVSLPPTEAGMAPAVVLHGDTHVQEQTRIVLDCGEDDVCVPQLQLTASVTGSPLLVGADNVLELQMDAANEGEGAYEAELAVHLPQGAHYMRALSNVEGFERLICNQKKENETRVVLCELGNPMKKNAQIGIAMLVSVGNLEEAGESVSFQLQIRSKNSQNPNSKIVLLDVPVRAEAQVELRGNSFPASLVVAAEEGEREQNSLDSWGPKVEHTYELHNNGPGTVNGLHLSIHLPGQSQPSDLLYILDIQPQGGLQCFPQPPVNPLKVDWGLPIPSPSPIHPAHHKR
Sequence of Integrin alpha-IIb/beta-3 (P08514 891-1039 limits assumed): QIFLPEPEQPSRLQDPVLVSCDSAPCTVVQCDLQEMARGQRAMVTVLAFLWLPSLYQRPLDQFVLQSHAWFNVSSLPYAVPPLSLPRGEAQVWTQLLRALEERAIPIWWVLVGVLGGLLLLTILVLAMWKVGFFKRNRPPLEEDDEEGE

| Ki [1] | Ki [2] | IC50 [3] | SMILES |
| --- | --- | --- | --- |
| > 50000 nM | 110 nM |  | CN1Cc2cc(C(=O)NCc3cc4ccccc4[nH]3)ccc2N[C@@H](CC(=O)O)C1=O (racemic) |
|  | 28 nM | 3000 nM | COCCN1Cc2cc(C(=O)NCc3nc4ccccc4[nH]3)ccc2N[C@@H](CC(=O)O)C1=O (racemic) |
|  | 24 nM | 3600 nM | CN1Cc2cc(C(=O)NCc3nc4ccccc4[nH]3)ccc2N[C@@H](CC(=O)O)C1=O (racemic) |
|  | 5 nM | 280 nM | CN1Cc2cc(C(=O)N(CCc3ccccc3)Cc3nc4ccccc4[nH]3)ccc2N[C@@H](CC(=O)O)C1=O |
|  | 750 nM |  | CN1Cc2cc(C(=O)N(Cc3nc4ccccc4[nH]3)C3CCCCC3)ccc2N[C@@H](CC(=O)O)C1=O |
|  | 15 nM | 690 nM | CN(Cc1nc2cc(C#N)ccc2[nH]1)C(=O)c1ccc2c(c1)CN(C)C(=O)[C@H](CC(=O)O)N2 (racemic) |
|  | 3.5 nM | 520 nM | CCCCN(Cc1nc2ccccc2[nH]1)C(=O)c1ccc2c(c1)CN(C)C(=O)[C@H](CC(=O)O)N2 |
|  | 6.5 nM | 500 nM | CN(Cc1nc2ccccc2[nH]1)C(=O)c1ccc2c(c1)CNC(=O)[C@H](CC(=O)O)N2 |
|  | 11 nM | 900 nM | CN(Cc1nc2cc(Cl)ccc2[nH]1)C(=O)c1ccc2c(c1)CN(C)C(=O)[C@H](CC(=O)O)N2 (racemic) |
|  | 1.9 nM | 510 nM | CN(Cc1nc2ccccc2[nH]1)C(=O)c1ccc2c(c1)CN(Cc1ccccc1)C(=O)[C@H](CC(=O)O)N2 (racemic) |
|  | 30 nM | 5000 nM | O=C(O)C[C@@H]1Nc2ccc(C(=O)NCc3nc4ccccc4[nH]3)cc2CNC1=O |
|  | 10 nM | 350 nM | O=C(O)C[C@@H]1Nc2ccc(C(=O)NCc3nc4ccccc4[nH]3)cc2CN(CCc2cccnc2)C1=O |
|  | 13 nM | 1100 nM | CN(Cc1nc2c([N+](=O)[O-])cccc2[nH]1)C(=O)c1ccc2c(c1)CN(C)C(=O)[C@H](CC(=O)O)N2 |
| 47000 nM | 2900 nM |  | CN1Cc2cc(C(=O)NCc3ncc[nH]3)ccc2N[C@@H](CC(=O)O)C1=O (racemic) |
|  | 6 nM | 250 nM | CN(Cc1nc2ccccc2[nH]1)C(=O)c1ccc2c(c1)CN(CCc1ccc3c(c1)OCO3)C(=O)[C@H](CC(=O)O)N2 (racemic) |
|  |  | 1650 nM | CN1Cc2cc(C(=O)NCc3nc4ccccc4[nH]3)ccc2N[C@@H](CC(=O)O)C1=O |
|  | 27 nM | 4500 nM | O=C(O)C[C@@H]1Nc2ccc(C(=O)NCc3nc4ccccc4[nH]3)cc2CN(CC(=O)O)C1=O (racemic) |
| 30000 nM | 1100 nM |  | CN(Cc1nc2ccccc2o1)C(=O)c1ccc2c(c1)CN(C)C(=O)[C@H](CC(=O)O)N2 (racemic) |
|  | 1300 nM |  | COc1ccc(OC)c2[nH]c(CN(C)C(=O)c3ccc4c(c3)CN(C)C(=O)[C@H](CC(=O)O)N4)nc12 |
|  | 6.5 nM | 670 nM | O=C(O)C[C@@H]1Nc2ccc(C(=O)NCc3nc4ccccc4[nH]3)cc2CN(CCc2ccc3c(c2)OCO3)C1=O (racemic) |

| Ki [1] | Ki [2] | IC50 [3] | SMILES |
| --- | --- | --- | --- |
|  | 5.5 nM | 810 nM | CN(Cc1nc2c(N)cccc2[nH]1)C(=O)c1ccc2c(c1)CN(C)C(=O)[C@H](CC(=O)O)N2 |
| 28000 nM | 70 nM |  | CN(Cc1nc2ccccc2n1C)C(=O)c1ccc2c(c1)CN(C)C(=O)[C@H](CC(=O)O)N2 |
|  | 19 nM | 900 nM | CN(Cc1nc2ccc(N)cc2[nH]1)C(=O)c1ccc2c(c1)CN(C)C(=O)[C@H](CC(=O)O)N2 (racemic) |
|  | 1.6 nM | 180 nM | CN(Cc1nc2ccccc2[nH]1)C(=O)c1ccc2c(c1)CN(CCC(C)(C)C)C(=O)[C@H](CC(=O)O)N2 (racemic) |
|  | 2.5 nM | 480 nM | CN1Cc2cc(C(=O)N(Cc3nc4ccccc4[nH]3)Cc3nc4ccccc4[nH]3)ccc2N[C@@H](CC(=O)O)C1=O |
| 2750 nM | 5 nM |  | CN(Cc1nc2c([nH]1)CCCC2)C(=O)c1ccc2c(c1)CN(C)C(=O)[C@H](CC(=O)O)N2 |
|  | 2.5 nM | 540 nM | CN(Cc1nc2cc(F)c(F)cc2[nH]1)C(=O)c1ccc2c(c1)CN(C)C(=O)[C@H](CC(=O)O)N2 |
|  | 8.5 nM | 1000 nM | CN(Cc1nc2ccc(C(F)(F)F)cc2[nH]1)C(=O)c1ccc2c(c1)CN(C)C(=O)[C@H](CC(=O)O)N2 |
|  | 4 nM | 810 nM | CN1Cc2cc(C(=O)N(CC#N)Cc3nc4ccccc4[nH]3)ccc2N[C@@H](CC(=O)O)C1=O |
|  | 9 nM | 750 nM | O=C(O)C[C@@H]1Nc2ccc(C(=O)NCc3nc4ccccc4[nH]3)cc2CN(CCc2ccccc2)C1=O (racemic) |
|  | 9 nM | 690 nM | CN(Cc1nc2cc3c(cc2[nH]1)OCO3)C(=O)c1ccc2c(c1)CN(C)C(=O)[C@H](CC(=O)O)N2 |
|  | 15 nM | 1500 nM | O=C(O)C[C@@H]1Nc2ccc(C(=O)NCc3nc4ccccc4[nH]3)cc2CN(Cc2ccccc2)C1=O |
|  | 20 nM | 5100 nM | CC(C)N1Cc2cc(C(=O)NCc3nc4ccccc4[nH]3)ccc2N[C@@H](CC(=O)O)C1=O (racemic) |
|  | 4 nM | 90 nM | CN(Cc1nc2ccccc2[nH]1)C(=O)c1ccc2c(c1)CN(CCc1ccccc1)C(=O)[C@H](CC(=O)O)N2 |
|  | 3 nM | 340 nM | COCCN1Cc2cc(C(=O)N(C)Cc3nc4ccccc4[nH]3)ccc2N[C@@H](CC(=O)O)C1=O (racemic) |
| 29000 nM | 480 nM |  | CN(Cc1nc2ccccc2s1)C(=O)c1ccc2c(c1)CN(C)C(=O)[C@H](CC(=O)O)N2 (racemic) |
|  | 180 nM |  | COc1cc2nc(CN(C)C(=O)c3ccc4c(c3)CN(C)C(=O)[C@H](CC(=O)O)N4)[nH]c2cc1OC |
|  | 14 nM | 3000 nM | CN(Cc1nc2ccc([N+](=O)[O-])cc2[nH]1)C(=O)c1ccc2c(c1)CN(C)C(=O)[C@H](CC(=O)O)N2 (racemic) |
|  | 15 nM | 1400 nM | CC(C)(C)CCN1Cc2cc(C(=O)NCc3nc4ccccc4[nH]3)ccc2N[C@@H](CC(=O)O)C1=O (racemic) |
|  | 2 nM | 480 nM | Cc1cccc2[nH]c(CN(C)C(=O)c3ccc4c(c3)CN(C)C(=O)[C@H](CC(=O)O)N4)nc12 |
